Measurements from paper PMC12475274, “Harnessing indole scaffolds to identify small-molecule IRE1α inhibitors modulating XBP1 mRNA splicing” (Nature Communications, 2025).
Entries after “also recorded” stand apart in the source; their conditions may differ.

Legend:
[1] = biological target: T1, wild-type full-length IRE1α in A549 cell lysate (Homo sapiens, UniProt O75460); test: Thermal stability assay in A549 cell lysate; format: binding
T1 construct: endogenous in cells; host or cells: A549 cells
Protocol: A549 cells were harvested and seeded into 100 mm standard cell culture dishes at 80% confluency and cultured overnight. For the IA107 experiment, cells were gently washed with pre-cooled DPBS (Gibco,14190169) and lysed in RIPA buffer (Sigma, R0278) supplemented with phosphatase inhibitor (Roch, 4906845001) and 1× protease inhibitor cocktail (Sigma, P8340) for 30 min on ice. Cell lysates were centrifuged at 18,000 × g for 30 min at 4 °C and the supernatants were collected. The lysates were collected together and then aliquoted into 550 μL, the aliquots were incubated with different concentrations of IA107 with a final concentration of 0.1% DMSO for 30 min at room temperature. After the incubation, the sample was aliquoted into 10 PCR tubes, with 50 μL of lysate per tube and further heated at the indicated temperatures using a PCR cycler (25 °C for 1 min; indicated temperatures for 3 min; 16 °C, hold). After heating, the lysates were centrifuged at 18,000 × g for 30 min at 4 °C and the supernatants were collected and mixed with 4x protein loading buffer (Invitrogen, 2463559), heated at 95 °C for 10 min and separated by 4–20% MP stain-free gels (Bio-Rad, 4568095) then transferred to 0.45 μm PVDF membranes (Bio-Rad, 1704274) using the Trans-Blot Turbo Transfer System with the preprogrammed standard SD protocol (Bio-Rad). […]

[2] = biological target: STK33 (Homo sapiens, UniProt Q9BYT3); test: Kinase profiling (SelectScreen), LanthaScreen Binding; settings: IA107 at 5 μM
Protocol: (§1) Kinase profiling was conducted by the SelectScreen Kinase Profiling Services (Thermo Fisher), using Z′-LYTE, Adapta, or LanthaScreen Eu Kinase Binding Assay for different kinases. The kinome phylogenetic tree was generated using the KinMap web portal.

[3] = biological target: CDK8/cyclin C (Homo sapiens, UniProt P49336); test: as above; settings: IA107 at 5 μM
Protocol: as §1

[4] = biological target: STK32B (YANK2) (Homo sapiens, UniProt Q9NY57); test: as above; settings: IA107 at 5 μM
Protocol: as §1

[5] = biological target: TLK1 (Homo sapiens, UniProt Q9UKI8); test: as above; settings: IA107 at 5 μM
Protocol: as §1

[6] = biological target: MAPK15 (ERK7) (Homo sapiens, UniProt Q8TD08); test: as above; settings: IA107 at 5 μM
Protocol: as §1

[7] = biological target: TGFBR1 (ALK5) (Homo sapiens, UniProt P36897); test: as above; settings: IA107 at 5 μM
Protocol: as §1

[8] = biological target: CAMKK2 (CaMKK beta) (Homo sapiens, UniProt Q96RR4); test: as above; settings: IA107 at 5 μM
Protocol: as §1

[9] = biological target: TNIK (Homo sapiens, UniProt Q9UKE5); test: as above; settings: IA107 at 5 μM
Protocol: as §1

[10] = biological target: MAP3K11 (MLK3) (Homo sapiens, UniProt Q16584); test: as above; settings: IA107 at 5 μM
Protocol: as §1

[11] = biological target: STK38 (NDR) (Homo sapiens, UniProt Q15208); test: as above; settings: IA107 at 5 μM
Protocol: as §1

[12] = biological target: CDC7/DBF4 (Homo sapiens, UniProt O00311); test: as above; settings: IA107 at 5 μM
Protocol: as §1

[13] = biological target: CASK (Homo sapiens, UniProt O14936); test: as above; settings: IA107 at 5 μM
Protocol: as §1

[14] = biological target: DDR2 (Homo sapiens, UniProt Q16832); test: as above; settings: IA107 at 5 μM
Protocol: as §1

[15] = biological target: BMPR2 (Homo sapiens, UniProt Q13873); test: as above; settings: IA107 at 5 μM
Protocol: as §1

[16] = biological target: BRSK2 (Homo sapiens, UniProt Q8IWQ3); test: as above; settings: IA107 at 5 μM
Protocol: as §1

[17] = biological target: LIMK1 (Homo sapiens, UniProt P53667); test: as above; settings: IA107 at 5 μM
Protocol: as §1

[18] = biological target: TTK (Homo sapiens, UniProt P33981); test: as above; settings: IA107 at 5 μM
Protocol: as §1

[19] = biological target: ACVR1 (ALK2) (Homo sapiens, UniProt Q04771); test: as above; settings: IA107 at 5 μM
Protocol: as §1

[20] = biological target: MAP3K14 (NIK) (Homo sapiens, UniProt Q99558); test: as above; settings: IA107 at 5 μM
Protocol: as §1

[21] = biological target: MYO3B (MYO3 beta) (Homo sapiens, UniProt Q8WXR4); test: as above; settings: IA107 at 5 μM
Protocol: as §1

[22] = biological target: RIPK2 (Homo sapiens, UniProt O43353); test: as above; settings: IA107 at 5 μM
Protocol: as §1

[23] = biological target: MAP4K1 (HPK1) (Homo sapiens, UniProt Q92918); test: as above; settings: IA107 at 5 μM
Protocol: as §1

T1 sequence (O75460 19-977): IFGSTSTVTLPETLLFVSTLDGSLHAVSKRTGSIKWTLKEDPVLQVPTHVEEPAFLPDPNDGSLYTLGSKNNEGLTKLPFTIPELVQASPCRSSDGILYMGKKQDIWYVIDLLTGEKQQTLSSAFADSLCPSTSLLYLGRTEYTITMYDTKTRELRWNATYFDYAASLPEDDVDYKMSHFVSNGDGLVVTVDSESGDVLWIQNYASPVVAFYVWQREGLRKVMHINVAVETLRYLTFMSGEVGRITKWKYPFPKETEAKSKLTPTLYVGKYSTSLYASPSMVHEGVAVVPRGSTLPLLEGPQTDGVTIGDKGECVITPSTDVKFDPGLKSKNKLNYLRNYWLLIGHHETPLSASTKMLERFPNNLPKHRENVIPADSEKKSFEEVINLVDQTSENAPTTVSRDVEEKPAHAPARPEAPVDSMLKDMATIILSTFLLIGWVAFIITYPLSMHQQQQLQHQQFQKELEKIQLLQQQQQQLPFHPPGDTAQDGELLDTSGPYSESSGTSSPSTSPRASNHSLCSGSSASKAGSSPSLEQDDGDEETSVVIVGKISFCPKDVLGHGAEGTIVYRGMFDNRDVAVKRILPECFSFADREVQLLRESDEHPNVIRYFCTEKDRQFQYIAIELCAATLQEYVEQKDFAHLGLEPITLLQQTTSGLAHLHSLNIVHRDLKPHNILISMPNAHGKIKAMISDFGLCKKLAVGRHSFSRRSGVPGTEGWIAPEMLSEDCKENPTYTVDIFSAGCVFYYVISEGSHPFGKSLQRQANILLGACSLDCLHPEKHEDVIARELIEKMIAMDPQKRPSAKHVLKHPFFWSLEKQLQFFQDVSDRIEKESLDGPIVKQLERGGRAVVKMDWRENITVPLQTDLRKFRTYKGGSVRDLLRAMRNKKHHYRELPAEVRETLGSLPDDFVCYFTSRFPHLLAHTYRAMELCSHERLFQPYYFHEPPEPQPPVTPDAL
DDR2, sequence (Q16832 22-855): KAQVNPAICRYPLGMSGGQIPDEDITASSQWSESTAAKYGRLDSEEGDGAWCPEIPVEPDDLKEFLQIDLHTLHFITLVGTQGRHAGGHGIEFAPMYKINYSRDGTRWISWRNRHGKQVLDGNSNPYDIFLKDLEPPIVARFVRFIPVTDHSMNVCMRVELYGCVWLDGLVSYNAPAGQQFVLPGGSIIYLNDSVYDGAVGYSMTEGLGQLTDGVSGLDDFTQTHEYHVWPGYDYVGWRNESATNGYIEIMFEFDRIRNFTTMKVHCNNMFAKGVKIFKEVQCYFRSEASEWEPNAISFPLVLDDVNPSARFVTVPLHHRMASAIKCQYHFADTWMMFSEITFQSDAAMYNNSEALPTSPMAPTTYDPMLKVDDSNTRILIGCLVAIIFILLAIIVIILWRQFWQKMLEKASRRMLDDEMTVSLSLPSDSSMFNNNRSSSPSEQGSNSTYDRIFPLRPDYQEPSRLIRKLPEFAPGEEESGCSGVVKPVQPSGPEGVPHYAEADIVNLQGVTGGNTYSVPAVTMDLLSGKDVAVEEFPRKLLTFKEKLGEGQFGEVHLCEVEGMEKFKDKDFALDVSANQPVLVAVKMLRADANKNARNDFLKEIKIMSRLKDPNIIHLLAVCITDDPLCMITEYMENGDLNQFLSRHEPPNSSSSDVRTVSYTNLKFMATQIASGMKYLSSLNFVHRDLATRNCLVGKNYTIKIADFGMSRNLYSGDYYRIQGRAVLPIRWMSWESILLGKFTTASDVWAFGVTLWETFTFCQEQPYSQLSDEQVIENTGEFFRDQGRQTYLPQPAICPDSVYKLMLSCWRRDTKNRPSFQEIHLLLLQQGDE
MAP4K1 (HPK1), sequence (Q92918 whole entry): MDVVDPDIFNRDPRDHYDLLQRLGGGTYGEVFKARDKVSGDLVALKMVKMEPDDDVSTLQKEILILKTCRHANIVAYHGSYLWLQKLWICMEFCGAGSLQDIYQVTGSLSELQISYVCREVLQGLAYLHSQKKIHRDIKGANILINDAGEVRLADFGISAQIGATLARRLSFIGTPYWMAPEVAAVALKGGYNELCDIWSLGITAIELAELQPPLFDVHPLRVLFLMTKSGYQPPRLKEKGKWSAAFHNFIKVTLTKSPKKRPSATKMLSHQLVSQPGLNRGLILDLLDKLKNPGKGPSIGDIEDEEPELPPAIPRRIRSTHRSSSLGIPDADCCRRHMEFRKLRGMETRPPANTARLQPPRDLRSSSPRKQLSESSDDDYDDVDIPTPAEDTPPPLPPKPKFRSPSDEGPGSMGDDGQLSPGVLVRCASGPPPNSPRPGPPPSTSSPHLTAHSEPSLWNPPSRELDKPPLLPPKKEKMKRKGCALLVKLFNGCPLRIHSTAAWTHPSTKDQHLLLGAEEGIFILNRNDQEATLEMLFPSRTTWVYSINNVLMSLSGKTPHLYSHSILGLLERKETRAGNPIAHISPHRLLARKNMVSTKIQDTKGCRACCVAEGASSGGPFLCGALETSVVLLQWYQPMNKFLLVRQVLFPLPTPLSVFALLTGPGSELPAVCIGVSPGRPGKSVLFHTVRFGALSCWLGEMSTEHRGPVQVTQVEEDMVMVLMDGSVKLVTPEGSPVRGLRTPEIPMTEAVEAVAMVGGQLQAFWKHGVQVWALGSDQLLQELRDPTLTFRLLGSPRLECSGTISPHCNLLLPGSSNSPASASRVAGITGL
RIPK2, sequence (O43353 whole entry): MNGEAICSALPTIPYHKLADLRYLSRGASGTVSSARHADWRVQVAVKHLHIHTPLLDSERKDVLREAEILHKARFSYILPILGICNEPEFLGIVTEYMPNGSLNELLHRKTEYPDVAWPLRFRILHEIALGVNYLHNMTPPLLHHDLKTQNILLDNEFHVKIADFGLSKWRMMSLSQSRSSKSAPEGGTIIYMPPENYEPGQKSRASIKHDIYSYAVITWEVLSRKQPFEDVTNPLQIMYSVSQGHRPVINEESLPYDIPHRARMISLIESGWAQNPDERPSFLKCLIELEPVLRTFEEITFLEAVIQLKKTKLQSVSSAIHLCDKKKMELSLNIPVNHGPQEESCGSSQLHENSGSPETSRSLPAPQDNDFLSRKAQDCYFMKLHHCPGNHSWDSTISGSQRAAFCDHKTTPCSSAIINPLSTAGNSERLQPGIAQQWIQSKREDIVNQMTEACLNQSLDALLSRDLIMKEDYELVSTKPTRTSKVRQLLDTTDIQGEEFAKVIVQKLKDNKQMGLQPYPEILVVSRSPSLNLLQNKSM
MYO3B (MYO3 beta), sequence (Q8WXR4 whole entry): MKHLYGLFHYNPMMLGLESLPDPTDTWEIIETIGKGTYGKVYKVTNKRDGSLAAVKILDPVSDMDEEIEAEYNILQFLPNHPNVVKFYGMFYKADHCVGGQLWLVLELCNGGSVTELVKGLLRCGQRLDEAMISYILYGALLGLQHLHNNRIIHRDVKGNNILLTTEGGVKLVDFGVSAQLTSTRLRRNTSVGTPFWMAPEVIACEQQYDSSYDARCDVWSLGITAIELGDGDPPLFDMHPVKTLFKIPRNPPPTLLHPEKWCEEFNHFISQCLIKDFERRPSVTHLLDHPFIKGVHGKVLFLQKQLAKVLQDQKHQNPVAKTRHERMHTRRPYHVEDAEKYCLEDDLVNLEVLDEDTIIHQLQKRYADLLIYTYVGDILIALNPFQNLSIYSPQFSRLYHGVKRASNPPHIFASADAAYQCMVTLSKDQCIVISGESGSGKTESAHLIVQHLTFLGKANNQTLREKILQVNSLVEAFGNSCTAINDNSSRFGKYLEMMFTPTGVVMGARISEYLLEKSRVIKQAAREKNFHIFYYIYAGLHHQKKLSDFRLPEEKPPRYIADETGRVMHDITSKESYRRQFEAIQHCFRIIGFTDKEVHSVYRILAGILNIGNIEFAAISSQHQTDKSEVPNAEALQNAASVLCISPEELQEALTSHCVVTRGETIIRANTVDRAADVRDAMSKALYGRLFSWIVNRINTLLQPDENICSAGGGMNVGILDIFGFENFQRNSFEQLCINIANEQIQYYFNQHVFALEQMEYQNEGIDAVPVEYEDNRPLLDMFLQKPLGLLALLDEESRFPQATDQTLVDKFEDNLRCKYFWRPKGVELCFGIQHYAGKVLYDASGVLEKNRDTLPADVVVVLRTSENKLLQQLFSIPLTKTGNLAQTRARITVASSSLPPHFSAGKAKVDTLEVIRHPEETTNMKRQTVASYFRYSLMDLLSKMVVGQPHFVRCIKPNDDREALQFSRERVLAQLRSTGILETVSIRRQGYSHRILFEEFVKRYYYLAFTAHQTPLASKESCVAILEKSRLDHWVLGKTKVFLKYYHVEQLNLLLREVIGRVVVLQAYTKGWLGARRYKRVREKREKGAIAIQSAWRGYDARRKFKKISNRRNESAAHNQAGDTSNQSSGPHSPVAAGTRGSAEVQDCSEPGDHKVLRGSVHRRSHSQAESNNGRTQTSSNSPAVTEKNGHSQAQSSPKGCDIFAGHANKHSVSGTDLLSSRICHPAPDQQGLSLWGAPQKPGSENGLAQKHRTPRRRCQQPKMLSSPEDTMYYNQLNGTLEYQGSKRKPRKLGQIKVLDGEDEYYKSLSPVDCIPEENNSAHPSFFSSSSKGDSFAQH
TGFBR1 (ALK5), sequence (P36897 34-503): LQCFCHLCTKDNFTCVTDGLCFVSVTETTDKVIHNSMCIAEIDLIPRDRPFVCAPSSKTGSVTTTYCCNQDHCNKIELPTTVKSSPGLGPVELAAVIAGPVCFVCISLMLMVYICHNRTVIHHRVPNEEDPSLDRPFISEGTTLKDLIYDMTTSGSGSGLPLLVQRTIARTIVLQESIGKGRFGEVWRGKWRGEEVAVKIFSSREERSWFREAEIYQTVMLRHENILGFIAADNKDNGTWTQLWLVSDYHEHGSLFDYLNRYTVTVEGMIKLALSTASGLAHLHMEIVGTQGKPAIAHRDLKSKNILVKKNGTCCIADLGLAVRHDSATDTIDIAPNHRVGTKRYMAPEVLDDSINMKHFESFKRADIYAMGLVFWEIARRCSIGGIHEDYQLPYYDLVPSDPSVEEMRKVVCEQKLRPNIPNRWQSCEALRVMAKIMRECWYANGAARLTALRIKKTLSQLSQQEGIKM

Compound: Cc1c(CCC(=O)O)c2cc(Br)ccc2n1C(=O)c1ccccc1 [IA107]
- thermal stabilization of full-length IRE1α in cell lysate [1]: concentration-dependently stabilized; also recorded: stabilized full-length IRE1α in cell lysate; also recorded: stabilized the full-length IRE1α in a concentration-dependent manner
- inhibition at 5 µM [2]: -4%
- inhibition at 5 µM [3]: 35%
- inhibition at 5 µM [4]: 2%
- inhibition at 5 µM [5]: -12%
- inhibition at 5 µM [6]: 17%
- inhibition at 5 µM [7]: 54%
- inhibition at 5 µM [8]: 4%
- inhibition at 5 µM [9]: 8%
- inhibition at 5 µM [10]: -3%
- inhibition at 5 µM [11]: 6%
- inhibition at 5 µM [12]: 8%
- inhibition at 5 µM [13]: -14%
- inhibition at 5 µM [14]: -1%
- inhibition at 5 µM [15]: -4%
- inhibition at 5 µM [16]: 1%
- inhibition at 5 µM [17]: -16%
- inhibition at 5 µM [18]: 6%
- inhibition at 5 µM [19]: 2%
- inhibition at 5 µM [20]: 0%
- inhibition at 5 µM [21]: -2%
- inhibition at 5 µM [22]: 0%
- inhibition at 5 µM [23]: -2%
